Source: patent US20080152735A1, “Herbal Extract Having Anti- Influenza Virus Activity and Preparation of Same” (NATIONAL DEFENSE MEDICAL CENTER, priority 2006, published 2008)
Where two headings read alike, the source gives them in different places.

Assays:
influenza virus (H1N1) = assay: in vitro anti-influenza virus test in MDCK cells, MTT readout; format: cell-based
[1] = test system: neuraminidase (NA) of influenza virus; format: biochemical; settings: for FU/min (neuraminidase enzymatic activity in presence of medicament): kit positive control 0.42 FU/min; for activity relative to that of Tamiflu: same dosage 0.5 mg/mL, ratio of FU/min values
[2] = test system: MDCK cells (Madin-Darby Canine Kidney Epithelial Cells)

NC(=O)c1ncn([C@@H]2O[C@H](CO)[C@@H](O)[C@H]2O)n1 [Ribavirin, reference compound]
D1 + V (influenza virus (H1N1); MTT absorbance percentage vs mock control, […], dosage 9.37 μg/mL, MDCK cells, H1N1): +++ (>75≦100 as +++)

CC(C)=CCc1c(O)cc2oc(-c3ccc(O)cc3)c(O)c(=O)c2c1O [SOFL-EM-8-6C, licoflavonol]
cell survival rate (influenza virus (H1N1); D1+V: infecting with virus one hour after pretreatment with test drug, 10 μg/mL): up to 100%
cell survival rate (influenza virus (H1N1); DV: cells treated simultaneously with test drug and virus, 10 μg/mL): 75%
DV (influenza virus (H1N1); MTT absorbance percentage vs mock control, cells treated simultaneously with test drug and virus, dosage 10 μg/mL, MDCK cells, H1N1): +++ (>75≦100 as +++)
V1 + D (influenza virus (H1N1); MTT absorbance percentage vs mock control, test drug added one hour after adsorption of virus on cell, dosage 10 μg/mL, MDCK cells, H1N1): ++++ (>100 as ++++)
D1 + V (influenza virus (H1N1); MTT absorbance percentage vs mock control, virus infection one hour after pretreatment with test drug, dosage 10 μg/mL, MDCK cells, H1N1): ++++ (>100 as ++++)
cell survival rate (influenza virus (H1N1); V1+D: test drug added one hour after adsorption of virus on cell, 10 μg/mL): 100%
Response ([1]; dosage 0.05 mg/mL): Inhibition
FU/min (neuraminidase enzymatic activity in presence of medicament) ([1]; dosage 0.05 mg/mL): 0.13 FU/min
Response ([1]; dosage 0.5 mg/mL): Inhibition
FU/min (neuraminidase enzymatic activity in presence of medicament) ([1]; dosage 0.5 mg/mL): 0.02 FU/min
activity relative to that of Tamiflu [1]: two-fold

O=c1c(O)c(-c2ccc(O)cc2)oc2cc(O)cc(O)c12 [SOFL-EM-8-6S, kaempferol]
cell survival rate (influenza virus (H1N1); D1+V: infecting with virus one hour after pretreatment with test drug, 18.75 μg/mL): up to 75%
D1 + V (influenza virus (H1N1); MTT absorbance percentage vs mock control, virus infection one hour after pretreatment with test drug, dosage 18.75 μg/mL, MDCK cells, H1N1): +++ (>75≦100 as +++)
Response ([1]; dosage 0.5 mg/mL): Inhibition
FU/min (neuraminidase enzymatic activity in presence of medicament) ([1]; dosage 0.5 mg/mL): 0.06 FU/min
activity relative to that of Tamiflu [1]: six-fold
D [2]: ++++ (key: absorbance percentage≦25 was recorded as +/−; >25≦50 recorded as +; >50≦75 as ++; >75≦100 as +++; >100 as ++++)

CCOC(=O)C1=C[C@@H](OC(CC)CC)[C@H](NC(C)=O)[C@@H](N)C1 [Tamiflu, reference compound]
Response ([1]; dosage 0.5 mg/mL): Inhibition
FU/min (neuraminidase enzymatic activity in presence of medicament) ([1]; dosage 0.5 mg/mL): 0.01 FU/min
